Where “and” joins values, the source holds several entries; their conditions need not be identical. Identical values can stand only once.
Columns and labels:
[1] = test system: H9c2 cardiomyocyte damage induced by hypoxia; assay: Hypoxia-induced H9c2 cardiomyocyte damage, nucleus number (Hoechst 33342, high-content imaging); assay type: cell-based; conditions: for nucleus number (Table 7): individual replicates N1-N3, 0.4 mg/mL DMSO stock diluted with medium
Experimental: (§1) 2. Experimental methods: QSYQ-1 and QSYQ-2, and each active ingredient group were ultrasonically dissolved and prepared into a 0.4 mg/mL of stock solution with DMSO. When in vitro activity evaluation was performed, the above groups were diluted with the same amount of experimental medium respectively.
(§2) The cells were collected at the logarithmic growth phase and added to a 96-well culture plate with a black transparent bottom at a concentration of 5000 cells per well and a volume of 100 μL per well. The cells were incubated in an incubator with 5% CO2 at 37° C. for 24 hours. Subsequently, the tested groups were added to the experimental groups respectively, incubated for 24 hours, and then placed in a hypoxic chamber passing a mixed gas composed of 95% nitrogen and 5% CO2 at a flow rate of 15 L/min for 10 mins, and incubated for another 8 hours after inducing hypoxia damage at 37° C. The model group was only incubated for 8 hours under hypoxia, and the blank control group was incubated normally.
(§3) The labeling operation of cell fluorescent probe was as follows: the mother liquor of fluorescent probe Hoechst 33342 was diluted 1000-fold into a DMEM basic medium; then the mother liquor of MitoTracker Deep Red FM was diluted 10000-fold into a culture medium containing Hoechst 33342 to serve as a “cocktail” stain. The medium in the culture plate was discarded and replaced with the “cocktail” stain, 50 μL per well, and incubated in an incubator away from light for 30 mins. The plate was taken out away from light, and washed with DMEM (high glucose) for 3 times and 5 minutes each time. Live cell imaging was performed subsequently.
(§4) The operation of live cell imaging with HCS was as follows: an excitation light of 360-400 and an emission light of 410-480 were selected for the imaging of Hoechst 33342-labeled nuclei; an excitation light of 620-640 and an emission light of 650-760 were selected for the imaging of MitoTracker Deep Red FM-labeled mitochondria. Harmony 3.0 software was applied to analyze the HCS imaging and read the fluorescence intensities of the nucleus/cytoplasm. The HCS screening system combined the automatic fluorescence microscopy imaging functions, and can perform a high-throughput multi-index analysis. Columbus high-efficiency image and data management and analysis system were applied to perform a secondary analysis and management of the image and data, and draw the dosage-dependent curve relationship.

[2] = test system: H9c2 cardiomyocyte damage induced by hypoxia; assay: Hypoxia-induced H9c2 cardiomyocyte damage, mitochondrial function (MitoTracker Deep Red FM, high-content imaging); assay type: cell-based; conditions: for mitochondrial function (Table 9): individual replicates N1-N3
Experimental: as §1, §2, §3, §4

[3] = mean of N1-N3, 24 h pre-incubation, then hypoxia 8 h
[4] = 24 h pre-incubation, then hypoxia 8 h

Row | Molecule | nucleus number, Mean (Table 7) [1, 3] | mitochondrial function, Mean (Table 9) [2, 3] | nucleus number (Table 7) [1, 4] | mitochondrial function (Table 9) [2, 4] | further results
1 | COc1ccc(-c2coc3cc(O)ccc3c2=O)cc1O [Calycosin, calycosin] | 386.0 | 905.6 |  |  | 
2 | COc1ccc(-c2coc3cc(O[C@@H]4O[C@H](CO)[C@@H](O)[C@H](O)[C@H]4O)ccc3c2=O)cc1O [Calycosin-7-glucoside, calycosin-7-glucoside] | 333.7 | 902.3 | 312 and 366 and 323 | 967.77 and 861.05 and 877.99 | 
3 | C[C@H]1COC2=C1C(=O)C(=O)c1c2ccc2c1CCCC2(C)C [Cryptotanshinone, cryptotanshinone] | 349.0 | 853.8 |  |  | 
4 | O=C(O)[C@H](O)Cc1ccc(O)c(O)c1 [Danshensu] | 346.3 | 879.0 | 326 and 371 and 342 | 909.24 and 845.81 and 882.04 | 
5 | Cc1cccc2c3c(ccc12)C1=C(C(=O)C3=O)[C@@H](C)CO1 [Dihydrotanshinone I, dihydrotanshinone I] | 339.7 | 887.3 | 303 and 373 and 313 | 930.1 and 918.77 and 813.04 | 
6 | COc1ccc(-c2coc3cc(O)ccc3c2=O)cc1 [Formononetin, formononetin] | 376.3 | 863.7 |  |  | 
7 | CC(C)=CCC[C@](C)(O[C@@H]1O[C@H](CO[C@@H]2O[C@H](CO)[C@@H](O)[C@H](O)[C@H]2O)[C@@H](O)[C@H](O)[C@H]1O)[C@H]1CC[C@]2(C)[C@@H]1[C@H](O)C[C@@H]1[C@@]3(C)CC[C@H](O[C@@H]4O[C@H](CO)[C@@H](O)[C@H](O)[C@H]4O[C@@H]4O[C@H](CO)[C@@H](O)[C@H](O)[C@H]4O)C(C)(C)[C@@H]3CC[C@]12C [Ginsenoside Rb1, ginsenoside Rb1] | 404.0 | 814.6 | 406 and 420 and 386 | 778.78 and 843.1 and 822.04 | 
8 | CC(C)=CCC[C@](C)(O[C@@H]1O[C@H](CO)[C@@H](O)[C@H](O)[C@H]1O)[C@H]1CC[C@]2(C)[C@@H]1[C@H](O)C[C@@H]1[C@@]3(C)CC[C@H](O[C@@H]4O[C@H](CO)[C@@H](O)[C@H](O)[C@H]4O[C@@H]4O[C@H](CO)[C@@H](O)[C@H](O)[C@H]4O)C(C)(C)[C@@H]3CC[C@]12C [Ginsenoside Rd, ginsenoside Rd] |  |  |  |  | nucleus number, Mean (Table 7) ([1]; 8 h): 408.0; mitochondrial function, Mean (Table 9) ([2]; 8 h): 820.9
9 | CC(C)=CCC[C@](C)(O[C@@H]1O[C@H](CO)[C@@H](O)[C@H](O)[C@H]1O)[C@H]1CC[C@]2(C)[C@@H]1[C@H](O)C[C@@H]1[C@@]3(C)CC[C@H](O)C(C)(C)[C@@H]3[C@@H](O[C@@H]3O[C@H](CO)[C@@H](O)[C@H](O)[C@H]3O)C[C@]12C [Ginsenoside Rg1, ginsenoside Rg1] | 308.0 | 905.5 | 264 and 310 and 350 | 843.46 and 918.73 and 954.27 | 
10 | O=C(/C=C/c1ccc(O)c2c1C=Cc1cc(O)c(O)cc1O2)O[C@H](Cc1ccc(O)c(O)c1)C(=O)O [Isosalvianolic acid C, isosalvianolic acid C] | 304.0 | 772.6 | 293 (2×) and 326 | 766.96 and 812.08 and 738.89 | 
11 | O=C(/C=C/c1ccc(O)c2c1[C@H](C(=O)O)[C@@H](c1ccc(O)c(O)c1)O2)O[C@H](Cc1ccc(O)c(O)c1)C(=O)O [Lithospermic acid, lithospermic acid] | 356.0 | 811.6 |  |  | 
12 | CC(C)=CCC[C@](C)(O[C@@H]1O[C@H](CO)[C@@H](O)[C@H](O)[C@H]1O)[C@H]1CC[C@]2(C)[C@@H]1[C@H](O)C[C@@H]1[C@@]3(C)CC[C@H](O)C(C)(C)[C@@H]3[C@@H](O[C@@H]3O[C@H](CO)[C@@H](O)[C@H](O)[C@H]3O[C@@H]3OC[C@@H](O)[C@H](O)[C@H]3O)C[C@]12C [Notoginsenoside R1, notoginsenoside R1] | 366.0 | 925.9 | 360 and 383 and 355 |  | mitochondrial function (Table 9) ([2]; 24 h pre-incubation, then hypoxia 8 h, listed as Notoainsenoside R1): 841.9 and 950.39 and 985.33
13 | COc1ccc(-c2coc3cc(O[C@@H]4O[C@H](CO)[C@@H](O)[C@H](O)[C@H]4O)ccc3c2=O)cc1 [Ononin, ononin] | 366.0 | 695.0 |  |  | 
14 | O=Cc1ccc(O)c(O)c1 [Protocatechuic aldehyde, protocatechuic aldehyde] | 336.3 | 909.7 | 361 and 345 and 303 | 946.04 and 881.05 and 901.89 | 
15 | O=C(/C=C/c1ccc(O)c(O)c1)O[C@H](Cc1ccc(O)c(O)c1)C(=O)O [Rosmarinic acid, rosmarinic acid] | 345.3 | 790.6 |  |  | 
16 | O=C(/C=C/c1ccc(O)c(O)c1/C=C/c1ccc(O)c(O)c1)O[C@H](Cc1ccc(O)c(O)c1)C(=O)O [Salvianolic acid A, salvianolic acid A] | 268.3 | 905.1 | 264 and 287 and 254 |  | mitochondrial function (Table 9) ([2]; 24 h pre-incubation, then hypoxia 8 h, listed as Saivianolic acid A): 914.19 and 859.26 and 941.93
17 | O=C(/C=C/c1ccc(O)c2c1[C@H](C(=O)O[C@H](Cc1ccc(O)c(O)c1)C(=O)O)[C@@H](c1ccc(O)c(O)c1)O2)O[C@H](Cc1ccc(O)c(O)c1)C(=O)O [Salvianolic acid B, salvianolic acid B] | 394.7 | 855.2 | 385 and 364 and 435 | 801.62 and 853.39 and 910.53 | 
18 | O=C(O)Cc1c(/C=C/C(=O)O[C@H](Cc2ccc(O)c(O)c2)C(=O)O)ccc(O)c1O [Salvianolic acid D, salvianolic acid D] | 271.7 | 922.3 | 306 and 236 and 273 | 946.71 and 900.04 and 920.17 | 
19 | O=C(O)C1Cc2ccc(O)c3c2C(=Cc2ccc(O)c(O)c2O3)C1=O (centres unmarked) [Salvianolic acid G, salvianolic acid G] | 366.3 | 867.7 | 380 and 328 and 391 |  | mitochondrial function (Table 9) ([2]; 24 h pre-incubation, then hypoxia 8 h, listed as Saivianolic acid G): 870.9 and 831.06 and 901.01
20 | O=C(/C=C/c1ccc(O)c(O)c1/C(=C\c1ccc(O)c(O)c1)C(=O)O)O[C@H](Cc1ccc(O)c(O)c1)C(=O)O [Salvianolic acid T, salvianolic acid T] | 296.0 | 842.6 | 325 and 279 and 284 | 815.14 and 888.53 and 824.27 | 
21 | O=C(/C=C/c1ccc(O)c(O)c1/C(=C\c1ccc(O)c(O)c1)C(=O)O)O[C@H](Cc1ccc(O)c(O)c1)C(=O)O [Salvianolic acid U, salvianolic acid U] | 305.3 | 909.3 | 349 and 315 and 252 | 992.37 and 840.14 and 895.53 | 
22 | Cc1coc2c1C(=O)C(=O)c1c-2ccc2c(C)cccc12 [Tanshinone I, tanshinone I] | 331.3 | 869.8 | 379 and 315 and 300 | 876.03 and 904.55 and 828.87 | 
23 | Cc1coc2c1C(=O)C(=O)c1c-2ccc2c1CCCC2(C)C [Tanshinone IIA, tanshinone IIA] | 393.3 | 695.2 |  |  | 
24 | astragaloside [Astragaioside] | 391.3 | 817.5 | 374 and 365 and 435 |  | mitochondrial function (Table 9) ([2]; 24 h pre-incubation, then hypoxia 8 h, listed as Astradaloside): 812.45 and 768.63 and 871.37
